The record followed here is patent US8580827B2 (priority 2009, dated 2013).

SMILES strings stand for the structures. Values after ≈ are worked out from the molar mass of the structure shown. “Also recorded” adds a separate entry of the source. Read-outs that look alike come from different tables or passages of the source. A value given as a limit tells only on which side of the number the result lay.

One data set has as its system F. novicida strain U112. Briefly: microbe, parasite or virus in culture. It counts as cell-based, F. tularensis subspecies novicida.
Data set [1] concerns live vaccine strain (LVS, type B). Briefly: microbe, parasite or virus in culture. The data set is classed as cell-based, F. tularensis.
Data set [2] has as its system RAW264.7 murine macrophage cells.
Data set [3] deals with Salmonella enterica serovar Typhimurium (ATCC 14028). It counts as cell-based.
Data set [4] has as its system intracellular F. tularensis (type A, Schu S4) in TPA-treated THP-1 cells. The data set is classed as cell-based.
Data set [5] has as its system intracellular F. novicida in TPA-differentiated human THP-1 macrophages. It counts as cell-based.
Data set [6] concerns intracellular F. novicida in RAW264.7 murine macrophages. It counts as cell-based.
Data set [7] deals with Escherichia coli (ATCC 25922). It counts as cell-based.
Data set [8] relates to F. tularensis strain Schu S4 (type A). Briefly: microbe, parasite or virus in culture. It counts as cell-based.
The mark [9] stands for this setting: Francisella tularensis, U112, 24 h.

With `NC(=O)c1ccc(-n2nc(C(F)(F)F)cc2-c2ccc(-c3ccc(Cl)cc3)cc2)cc1` [Compound 2, 4-[5-(4′-Chloro-biphenyl-4-yl)-3-trifluoromethyl-pyrazol-1-yl]-benzamide], the MIC in the data set on F. novicida strain U112 (setting [9]) is no more than 4 µg/mL; in data set [1] (Francisella tularensis, 48 h), no more than 4 µg/mL.
For the molecule `NS(=O)(=O)c1ccc(-n2nc(C(F)(F)F)cc2-c2ccc(-c3ccc(Cl)cc3)cc2)cc1` [Compound 11, 4-[5-(4′-Chloro-biphenyl-4-yl)-3-trifluoromethyl-pyrazol-1-yl]-benzenesulfonamide], the MIC is no more than 4 µg/mL in the data set on F. novicida strain U112 (setting [9]) and no more than 4 µg/mL in data set [1] (Francisella tularensis, 48 h).
Turning to `NS(=O)(=O)c1ccc(-n2nc(C(F)(F)F)cc2-c2ccc(-c3cc(Cl)c(Cl)cc3Cl)cc2)cc1` [Compound 12, 4-[5-(2′,4′,5′-Trichloro-biphenyl-4-yl)-3-trifluoromethyl-pyrazol-1-yl]-benzenesulfonamide], the MIC against F. novicida strain U112 (setting [9]) is no more than 4 µg/mL. The cytotoxicity for macrophages entry in data set [2] is “showed cytotoxicity for macrophages”.
Consider `Nc1ccc(-n2nc(C(F)(F)F)cc2-c2ccc(-c3ccccc3)cc2)cc1` [Compound 16, 4-(5-Biphenyl-4-yl-3-trifluoromethyl-pyrazol-1-yl)-phenylamine], for which the MIC was no more than 4 µg/mL in the data set on F. novicida strain U112 (setting [9]) and no more than 4 µg/mL in data set [1] (Francisella tularensis, 48 h).
Regarding `Nc1ccc(-n2nc(C(F)(F)F)cc2-c2ccc(-c3cc(Cl)c(Cl)cc3Cl)cc2)cc1` [Compound 17, 4-[5-(2′,4′,5′-Trichloro-biphenyl-4-yl)-3-trifluoromethyl-pyrazol-1-yl]-phenylamine], the figures for the MIC result (against F. novicida strain U112; in [1]) were “no measurable inhibitory effect” and “potent inhibitor”, respectively.
`Nc1ccc(-n2nc(C(F)(F)F)cc2-c2ccc(-c3ccc(Br)cc3)cc2)cc1` [Compound 20, 4-[5-(4′-Bromo-biphenyl-4-yl)-3-trifluoromethyl-pyrazol-1-yl]-phenylamine]: the “activity against S. enterica serovar Typhimurium” value in data set [3] is “inactive”. Moreover, the “inhibition of intracellular Schu S4 survival” value in [4] was “significant inhibitory effect”. Besides, the “inhibition of intracellular F. novicida survival” value in [5] and in data set [6] was “effectively inhibits; also recorded: could inhibit the survival of intracellular Francisella” in each case. For the same molecule, the MIC against F. novicida strain U112 (setting [9]) was no more than 4 µg/mL; in data set [1] (Francisella tularensis, 48 h) it was no more than 4 µg/mL. In [7], the “activity against E. coli” value is “inactive”.
Turning to `Cc1ccc(-c2cc(C(F)(F)F)nn2-c2ccc(S(N)(=O)=O)cc2)cc1` [celecoxib, 4-[5-(4-methylphenyl)-3-(trifluoromethyl)pyrazol-1-yl]benzenesulfonamide, reference compound], the MIC in data set [8] (Francisella tularensis, 24 h) was 16 µg/mL (≈ 42 µM); in [1] (Francisella tularensis, 48 h) it was 16 µg/mL (≈ 42 µM). Moreover, the “activity against S. enterica serovar Typhimurium” value in [3] was “inactive”. Moreover, the “decrease in CFU” value (in the data set on F. novicida strain U112; in [1]) was “≧log decrease in CFU” in each case. Besides, in data set [7], the “activity against E. coli” value was “inactive”.
As for `CS(=O)(=O)c1ccc(C2=C(c3ccccc3)C(=O)OC2)cc1` [rofecoxib], the effect on bacteria entry (in data set [8]; in data set [3]; with F. novicida strain U112; in data set [1]; in data set [7]) was “no appreciable effect” each time.
